What was measured:
SSC-4 = test: MTT assay, antiproliferative activity; format: cell-based; settings: Homo sapiens; SSC-4, MTT, 48 h, ± SD
Experimental: (§1) The in vitro anticancer activities of the prepared compounds against HepG2, Hela, MCF-7, A549, HT-29 and SSC-4 cell lines were evaluated as described in the literature. Target tumor cells were grown to log phase in DMEM medium supplemented with 10% fetal bovine serum. After reaching a dilution of 1 × 10^5 cells Ml^−1 with the medium, 100 μL of the obtained cell suspension was added to each well of 96-well culture plates. Subsequently, incubation was performed at 37 °C in 5% CO2 atmosphere for 12 h before the cytotoxicity assessment. Tested samples at preset concentrations were added to 6 wells with CA-4 being employed as a positive reference. After 48 h exposure period, 25 μL of PBS containing 2.5 mg mL^−1 of MTT (Sigma, USA) was added to each well. After 4 h, the medium was replaced by 150 μL DMSO to dissolve the purple formazan crystals produced. The absorbance at 570 nm of each well was measured with Synergy™ 2 Multi-Mode Microplate Reader. Cell viability (%) was calculated using the following equation: cell viability (%) = (Atreatment/Acontrol) × 100%. The data represented the mean of three independent experiments in triplicate and were expressed as means ± SD.

HepG2 = test: MTT assay, antiproliferative activity; format: cell-based; settings: Homo sapiens, 48 h, ± SD
Experimental: as §1

A549 = test: MTT assay, antiproliferative activity; format: cell-based; settings: Homo sapiens, 48 h, ± SD
Experimental: as §1

MCF-7 = test: MTT assay, antiproliferative activity; format: cell-based; settings: Homo sapiens, MCF7; MCF-7, MTT, 48 h, ± SD
Experimental: as §1

[1] = system: Cyclin B1, Cdc25c, Cdc2, P21 in A549 cells; test: Western blot of G2/M-related proteins; format: cell-based, human; settings: A549, 0.5-2.0 μM 48 h; 3.0 μM 12-48 h
Experimental: (§2) Total cellular proteins are extracted with lysis buffer (50 mmol/l Tris [pH 7.4], 150 mmol/l NaCl, 1% Triton X-100, 1% deoxycholicphenyl methylsulfonyl fluoride, 1 mg/ml aprotinin, 5.0 mmol/l sodium pyrophosphate, […] leupeptin, 0.1 mmol/l phenylmethylsulfonyl fluoride, and 1 mmol/l DTT). Protease inhibitors are added immediately before use. The cells are harvested at the end of treatment and extracted for western blot analysis as described previously. After washing twice with PBS, the cultured cells were collected and lysed in lysis buffer (100 mmol/l Tris-Cl, pH 6.8, 4% (m/v) SDS, 20% (v/v) glycerol, 200 mmol/l β-mercaptoethanol, 1 mmol/l phenylmethylsulfonyl fluoride, and […] aprotinin). The lysates were centrifuged at 13,000 × g for 15 min at 4 °C. The concentration of total proteins was measured using the BCA assay method with Varioskan spectrofluorometer and spectrophotometer (Thermo) at 562 nm. Protein samples were separated with 15% SDS-PAGE and transferred onto the polyvinyldifluoride (PVDF) membranes (Millipore, IPVH 304 F0). Immune complexes were formed by incubation of proteins with primary antibodies overnight at 4 °C followed by IRDye^TM 800 conjugated second antibody for 1 hour at 37 °C. Immunoreactive protein bands were detected with an Odyssey Scanning System (LI-COR Biosciences, 9201-03). Antibodies: primary antibodies of cyclin B1, Cdc2, p-Cdc2 (Thr14/Tyr15), Cdc25C, and p21WAF1/Cip1 were all obtained from EPITOMICS (Abcam, Cambridge, UK); antibodies of Bax and Bcl-2 were obtained from Bioworld (Bioworld Technology, Inc., MN, USA); antibodies of caspase-3, and PARP were all obtained from Santa Cruz (Santa Cruz, CA); and antibody of GAPDH was from Boster (Wuhan, China). The secondary antibodies peroxidase-conjugated affinipure Goat Anti-Mouse IgG (H + L) (111-035-003), peroxidase-conjugated affinipure Goat Anti-Rabbit IgG (H + L) (111-035-003) were obtained from Jackson Immuno Research Laboratories, Inc. (USA).

Bovine brain tubulin = test: Effects on tubulin polymerization (turbidimetric assembly); format: biochemical; settings: 10 μM tubulin, 30 °C, 20 min incubation; read-out: Tubulin inhibition IC50
Experimental: Bovine brain tubulin was purified as described previously. To evaluate the effect of the compounds on tubulin assembly in vitro, compounds of varying concentrations were preincubated with 10 μM tubulin in glutamate buffer at 30 °C and then cooled to 0 °C. After addition of GTP, the mixtures were transferred to 0 °C cuvettes in a recording BioTek Synergy 4 multifunction microplate spectrophotometer and warmed up to 30 °C and the assembly of tubulin was observed turbidimetrically (TU660, USA).

[2] = system: interphase microtubules of A549 cells; test: Confocal microscopy assay of microtubule morphology; format: cell-based, human; settings: A549, 1.0 μM, 48 h
Experimental: After incubating for 48 h, A549 cells were washed with PBS for three times and fixed with 4% paraformaldehyde for 20 min, permeabilized with cold methanol for another 10 min. After that, the cells were blocked with 5% BSA for 1 h. Subsequently, the cells were washed with PBS, and incubated with anti-tubulin antibody in 3% BSA (1:200 Cytoskeleton, Inc.) overnight at 4 °C. After being washed with PBS for three times, each cover slip was added 200 μL of Cy3-labeled goat anti-mouse IgG (H + L) in 3% BSA (1:500, Cytoskeleton, Inc.) and incubated for 1 h at room temperature. At last, A549 cells was stained with 200 μL of DAPI for 5 min and observed under an confocal microscope (Olympus, USA).

[3] = system: Bax, PARP, Bcl-2, Caspase3 in A549 cells; test: Western blot of apoptosis-related proteins; format: cell-based, human
Experimental: as §2

Q: For `COc1cc(/C=N/NC(=O)c2cn(Cc3ccccc3)c3ccccc23)cc(OC)c1OC` [Compound 7], which IC50 (SSC-4) is on record?
A: 35600 ± 1910 nM

Q: And the IC50 (HepG2)?
A: 630 ± 120 nM

Q: And the IC50 (A549)?
A: 80 ± 10 nM

Q: And the IC50 (MCF-7)?
A: 640 ± 110 nM

Q: And the cdc25c expression [1]?
A: down-regulated in a dose-dependent and time-dependent manner

Q: What about the cyclinB1 expression [1] of the same compound?
A: down-regulated in a dose-dependent and time-dependent manner

Q: What about the p21 expression [1] of the same compound?
A: increased

Q: What about the IC50 (Bovine brain tubulin) of the same compound?
A: 4460 nM

Q: What about the microtubule morphology [2] of the same compound?
A: disorganized interphase microtubules

Q: What about the “level of Bax” value ([3]; A549, 0.5, 1 and 2 μM, 48 h) of the same compound?
A: efficiently up-regulated

Q: What about the “level of anti-apoptotic proteins (Bcl-2, Bcl-xl)” value ([3]; A549, 0.5, 1 and 2 μM, 48 h) of the same compound?
A: down-regulated

Q: What about the “cleaved caspase-3 and PARP” value ([3]; A549, 48 h) of the same compound?
A: up regulation
